{"source": "patent US5763450A", "about": "“Substituted benzyl pyrimidines” (Hoffmann-La Roche Inc., priority 1994, dated 1998)", "key": {"[1]": {"target": "T1, purified DHFR of the opportunistic pathogen P. carinii (Pneumocystis carinii, UniProt P16184)", "T1 sequence (P16184 1-206)": "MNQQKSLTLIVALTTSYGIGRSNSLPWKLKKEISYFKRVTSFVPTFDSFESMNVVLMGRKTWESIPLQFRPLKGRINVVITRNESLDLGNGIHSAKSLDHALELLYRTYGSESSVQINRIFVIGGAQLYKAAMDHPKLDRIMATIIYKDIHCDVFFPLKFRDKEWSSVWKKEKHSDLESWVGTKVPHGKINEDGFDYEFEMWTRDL", "assay": "biochemical", "conditions": "determined graphically"}, "[2]": {"target": "purified DHFR of the reference strain S. aureus ATCC 25923 (Staphylococcus aureus, UniProt P0A017)", "sequence (P0A017 whole entry)": "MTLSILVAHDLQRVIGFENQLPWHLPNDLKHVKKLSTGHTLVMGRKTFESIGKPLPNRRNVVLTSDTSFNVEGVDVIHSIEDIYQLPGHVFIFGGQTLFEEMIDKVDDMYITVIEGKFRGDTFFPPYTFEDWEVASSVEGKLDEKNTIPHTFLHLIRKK", "assay": "Inhibition of purified DHFR of reference strain S. aureus ATCC 25923", "type": "biochemical"}, "[3]": {"system": "purified DHFR of the multi-resistant strain S. aureus 157/4696", "assay": "Inhibition of purified DHFR of multi-resistant strain S. aureus 157/4696", "type": "biochemical", "conditions": "determined graphically", "procedure": "The inhibition of the enzyme was taken as a measurement for the antibacterial activity. It is determined using the method of Baccanari and Joyner (Biochemistry 20, 1710 (1981)); see also P. G. Hartman et al., FEB 242, 157-160 (1988).\nThe IC50 values (concentration at which the enzyme is inhibited to 50%) are determined graphically.\nThe following Table contains inhibitory concentrations determined in the above test for representative members of the class of compound defined by formula I. The C50 values (μM) are given against the purified DHFR of the reference strain S. aureus ATCC 35923 as well as against the purified DHFR of the multi-resistant strain S. aureus 157/4696. […] The inhibition constants of trimethoprim are also given as a comparison."}}, "note": "Where a name gives a salt, the structure may show the parent alone."}
{"smiles": "COc1cc(Cc2cnc(N)nc2N)cc(C#Cc2ccc3c(=O)c(C(=O)O)cn(Cc4ccccc4)c3c2)c1OC", "note": "[Example 16p, hydrochloride]", "values": [{"measurement": "IC50", "setting": "[1]", "value": 0.14, "unit": "µM"}, {"measurement": "IC50", "setting": "[2]", "value": 0.0012, "unit": "µM"}, {"measurement": "IC50", "setting": "[3]", "value": 0.0013, "unit": "µM"}]}
{"smiles": "CCn1cc(C(=O)O)c(=O)c2cc(F)c(C#Cc3cc(Cc4cnc(N)nc4N)cc(OC)c3OC)cc21", "note": "[Example 16f, 1-ethyl-7-[5-(2,4-diamino-pyrimidin-5-ylmethyl)-2,3-dimethoxy-phenylethynyl]-6-fluoro-4-oxo-1,4-dihydro-quinoline-3-carboxylic acid hydrochloride]", "values": [{"measurement": "IC50", "setting": "[1]", "value": 0.28, "unit": "µM"}, {"measurement": "IC50", "setting": "[2]", "value": 0.0015, "unit": "µM"}, {"measurement": "IC50", "setting": "[3]", "value": 0.0065, "unit": "µM"}]}
{"smiles": "COc1cc(Cc2cnc(N)nc2N)cc(C#Cc2ccc3cc(C(=O)O)ccc3c2)c1OC", "note": "[Example 16j, 6-[5-(2,4-diamino-pyrimidin-5-ylmethyl)-2,3-dimethoxy-phenylethynyl]-naphthalene-2-carboxylic acid hydrochloride]", "values": [{"measurement": "IC50", "setting": "[1]", "value": 5, "unit": "µM"}, {"measurement": "IC50", "setting": "[2]", "value": 0.0009, "unit": "µM"}, {"measurement": "IC50", "setting": "[3]", "value": 0.024, "unit": "µM"}]}
{"smiles": "Nc1ncc(Cc2cccc(-c3cc4c(cc3F)c(=O)c(C(=O)O)cn4C3CC3)c2)c(N)n1", "note": "[Example 9c, 1-cyclopropyl-7-[5-(2,4-diamino-pyrimidin-5-ylmethyl)-phenyl]-6-fluoro-1,4-dihydro-4-oxo-quinoline-3-carboxylic acid]", "values": [{"measurement": "IC50", "setting": "[1]", "value": 0.2, "unit": "µM"}, {"measurement": "IC50", "setting": "[2]", "value": 0.0019, "unit": "µM"}, {"measurement": "IC50", "setting": "[3]", "value": 0.21, "unit": "µM"}]}
{"smiles": "CCOC(=O)c1cn(CC)c2cc(C#Cc3cc(Cc4cnc(N)nc4N)cc(OC)c3OC)ccc2c1=O", "note": "[Example 12g, ethyl 1-ethyl-7-[5-(2,4-diamino-pyrimidin-5-ylmethyl)-2,3-dimethoxy-phenylethynyl]-4-oxo-1,4-dihydro-quinoline-3-carboxylate]", "values": [{"measurement": "IC50", "setting": "[1]", "value": 0.9, "unit": "µM"}, {"measurement": "IC50", "setting": "[2]", "value": 0.005, "unit": "µM"}, {"measurement": "IC50", "setting": "[3]", "value": 0.13, "unit": "µM"}]}
{"smiles": "COc1ccc(Cc2cnc(N)nc2N)cc1-c1cc2c(cc1F)c(=O)c(C(=O)O)cn2C1CC1", "note": "[Example 9b, 1-cyclopropyl-7-[5-(2,4-diamino-pyrimidin-5-ylmethyl)-2-methoxy-phenyl]-6-fluoro-1,4-dihydro-4-oxo-quinoline-3-carboxylic acid trifluoroacetate]", "values": [{"measurement": "IC50", "setting": "[1]", "value": 0.038, "unit": "µM"}, {"measurement": "IC50", "setting": "[2]", "value": 0.0002, "unit": "µM"}, {"measurement": "IC50", "setting": "[3]", "value": 0.11, "unit": "µM"}]}
{"smiles": "COc1cc(Cc2cnc(N)nc2N)cc(C#Cc2cc3c(cc2F)c(=O)c(C(=O)O)cn3C2CC2)c1OC", "note": "[Example 16e, 1-cyclopropyl-7-[5-(2,4-diamino-pyrimidin-5-ylmethyl)-2,3-dimethoxy-phenylethynyl]-6-fluoro-4-oxo-1,4-dihydro-quinoline-3-carboxylic acid trifluoroacetate]", "values": [{"measurement": "IC50", "setting": "[1]", "value": 3.4, "unit": "µM"}, {"measurement": "IC50", "setting": "[2]", "value": 0.0029, "unit": "µM"}, {"measurement": "IC50", "setting": "[3]", "value": 0.08, "unit": "µM"}]}
{"smiles": "COc1cc(Cc2cnc(N)nc2N)cc(-c2cccc(O)c2)c1OC", "note": "[Example 5b, 5-(3'-hydroxy-5,6-dimethoxy-biphenyl-3-ylmethyl)-pyrimidine-2,4-diamine]", "values": [{"measurement": "IC50", "setting": "[1]", "value": 2.3, "unit": "µM"}, {"measurement": "IC50", "setting": "[2]", "value": 0.004, "unit": "µM"}, {"measurement": "IC50", "setting": "[3]", "value": 2.2, "unit": "µM"}]}
{"smiles": "COc1cc(Cc2cnc(N)nc2N)cc(C=Cc2ccc3ccccc3c2)c1OC", "note": "[Example 10b, 5-[3,4-dimethoxy-5-(2-naphthalen-2-yl-vinyl)-benzyl]-pyrimidine-2,4-diamine]", "values": [{"measurement": "IC50", "setting": "[1]", "value": 4, "unit": "µM"}, {"measurement": "IC50", "setting": "[2]", "value": 0.02, "unit": "µM"}, {"measurement": "IC50", "setting": "[3]", "value": 0.75, "unit": "µM"}]}
{"smiles": "COc1cc(Cc2cnc(N)nc2N)cc(-c2ccc3cc(O)ccc3c2)c1OC", "note": "[Example 5h, 5-(3,4-dimethoxy-5-naphthalen-6-hydroxy-2-yl-benzyl)-pyrimidine-2,4-diamine]", "values": [{"measurement": "IC50", "setting": "[1]", "value": 1, "unit": "µM"}, {"measurement": "IC50", "setting": "[2]", "value": 0.0013, "unit": "µM"}, {"measurement": "IC50", "setting": "[3]", "value": 0.5, "unit": "µM"}]}
{"smiles": "COc1cc(Cc2cnc(N)nc2N)cc(C#Cc2ccc3c(=O)c(C(=O)O)cn(C(C)(C)C)c3c2)c1OC", "note": "[Example 16ac, 1-tert-butyl-7-[5-(2,4-diamino-pyrimidin-5-ylmethyl)-2,3-dimethoxy-phenylethynyl]-4-oxo-1,4-dihydro-quinoline-3-carboxylate hydrochloride]", "values": [{"measurement": "IC50", "setting": "[1]", "value": 0.19, "unit": "µM"}, {"measurement": "IC50", "setting": "[2]", "value": 0.0009, "unit": "µM"}, {"measurement": "IC50", "setting": "[3]", "value": 0.0016, "unit": "µM"}]}
{"smiles": "COc1cc(Cc2cnc(N)nc2N)cc(-c2cc3c(cc2F)c(=O)c(C(=O)O)cn3C2CC2)c1OC", "note": "[Example 9a, 1-cyclopropyl-7-[5-(2,4-diaminopyrimidin-5-ylmethyl)-2,3-dimethoxy-phenyl]-6-fluoro-1,4-dihydro-4-oxo-quinoline-3-carboxylic acid trifluoroacetate]", "values": [{"measurement": "IC50", "setting": "[1]", "value": 0.019, "unit": "µM"}, {"measurement": "IC50", "setting": "[2]", "value": 0.0009, "unit": "µM"}, {"measurement": "IC50", "setting": "[3]", "value": 0.05, "unit": "µM"}]}
{"smiles": "COc1cc(Cc2cnc(N)nc2N)cc(-c2ccc(C(=O)O)cc2)c1OC", "note": "[Example 5c, 5-(4'-carboxyl-5,6-dimethoxy-biphenyl-3-ylmethyl)-pyrimidine-2,4-diamine hydrochloride]", "values": [{"measurement": "IC50", "setting": "[1]", "value": 0.48, "unit": "µM"}, {"measurement": "IC50", "setting": "[2]", "value": 0.0009, "unit": "µM"}, {"measurement": "IC50", "setting": "[3]", "value": 0.42, "unit": "µM"}]}
{"smiles": "COc1cc(Cc2cnc(N)nc2N)cc(C#Cc2ccc3ccccc3c2)c1OC", "note": "[Example 15a, 5-[3,4-dimethoxy-5-(naphthalen-2-ylethynyl)-benzyl]-pyrimidine-2,4-diamine]", "values": [{"measurement": "IC50", "setting": "[1]", "value": 8, "unit": "µM"}, {"measurement": "IC50", "setting": "[2]", "value": 0.015, "unit": "µM"}, {"measurement": "IC50", "setting": "[3]", "value": 0.7, "unit": "µM"}]}
{"smiles": "COc1cc(Cc2cnc(N)nc2N)cc(C#Cc2c(F)cc3c(=O)c(C(=O)O)cn(C4CC4)c3c2F)c1OC", "note": "[Example 16c, 1-cyclopropyl-7-[5-(2,4-diamino-pyrimidin-5ylmethyl)-2,3-dimethoxy-phenylethynyl]-6,8-difluoro-1,4-dihydro-4-oxo-quinoline-3-carboxylic acid hydrochloride]", "values": [{"measurement": "IC50", "setting": "[1]", "value": 0.036, "unit": "µM"}, {"measurement": "IC50", "setting": "[2]", "value": 0.0012, "unit": "µM"}, {"measurement": "IC50", "setting": "[3]", "value": 0.0024, "unit": "µM"}]}
{"smiles": "COc1cc(Cc2cnc(N)nc2N)cc(-c2ccc3ccccc3c2)c1OC", "note": "[Example 4h, 5-(3,4-dimethoxy-5-naphthalen-2-yl-benzyl)pyrimidine-2,4-diamine]", "values": [{"measurement": "IC50", "setting": "[1]", "value": 1.6, "unit": "µM"}, {"measurement": "IC50", "setting": "[2]", "value": 0.0022, "unit": "µM"}, {"measurement": "IC50", "setting": "[3]", "value": 1.3, "unit": "µM"}]}
